{"source": "the supplement of paper PMC10307832", "data": [{"compound": "CC[C@@H]1C(=O)N(C)c2cnc(Nc3ccc(C(=O)NC4CCN(C)CC4)cc3OC)nc2N1C1CCCC1 [BI-2536] + CC(C)C[C@H](NC(=O)[C@H](Cc1ccccc1)NC(=O)c1cnccn1)B(O)O [Bortezomib] (partner 0.002 µM)", "assay": "relative viability (nuclei count vs DMSO), 5 days (fraction); higher = more cells survive", "conditions": "first compound 1 µM", "summary_of_the_method": "(§1)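 A single step with final 0.05% Triton X-100, 1% formaldehyde and 1 ug/ml Hoechst fixed the cells and stained nuclei 5 days after treatment. Lung cancer cell lines in 1536-well plates had been treated by pin tool the day after seeding with one drug alone or a fixed anchor-drug dose plus five library-drug doses (not always all listed) in √10 steps, and nuclei were counted on 4× images. Relative viability is the ratio of nuclei in treated wells to nuclei in vehicle wells, taken as the median of duplicate plates.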", "values": [{"cell line": "NCI-H2023", "relative viability": 0.0889}, {"cell line": "HCC-15", "relative viability": 0.114}]}, {"compound": "CC[C@@H]1C(=O)N(C)c2cnc(Nc3ccc(C(=O)NC4CCN(C)CC4)cc3OC)nc2N1C1CCCC1 [BI-2536] + Cc1nc(Nc2ncc(C(=O)Nc3c(C)cccc3Cl)s2)cc(N2CCN(CCO)CC2)n1 [Dasatinib] (partner 0.075 µM)", "assay": "relative viability (nuclei count vs DMSO), 5 days (fraction); higher = more cells survive", "conditions": "first compound 0.01 µM", "summary_of_the_method": "as §1", "values": [{"cell line": "NCI-H2405", "relative viability": 0.19}, {"cell line": "HOP-62", "relative viability": 0.618}, {"cell line": "LU99A", "relative viability": 0.47}, {"cell line": "BEN", "relative viability": 0.34}, {"cell line": "HARA", "relative viability": 0.265}, {"cell line": "HCC-78", "relative viability": 0.454}, {"cell line": "NCI-H322M", "relative viability": 0.286}, {"cell line": "LCLC-97TM1", "relative viability": 0.943}, {"cell line": "NCI-H2009", "relative viability": 0.256}, {"cell line": "A-427", "relative viability": 0.579}, {"cell line": "NCI-H441", "relative viability": 0.434}, {"cell line": "NCI-H661", "relative viability": 0.851}, {"cell line": "NCI-H1734", "relative viability": 0.439}, {"cell line": "NCI-H460", "relative viability": 0.483}, {"cell line": "SK-LU-1", "relative viability": 0.176}, {"cell line": "201T", "relative viability": 0.579}, {"cell line": "NCI-H1915", "relative viability": 0.292}, {"cell line": "HCC-827", "relative viability": 0.293}, {"cell line": "LXF-289", "relative viability": 0.274}, {"cell line": "NCI-H23", "relative viability": 0.803}, {"cell line": "NCI-H647", "relative viability": 0.156}, {"cell line": "CAL-12T", "relative viability": 0.387}, {"cell line": "NCI-H1651", "relative viability": 0.138}, {"cell line": "EPLC-272H", "relative viability": 0.327}, {"cell line": "NCI-H2228", "relative viability": 0.448}, {"cell line": "NCI-H1355", "relative viability": 0.694}, {"cell line": "NCI-H3122", "relative viability": 0.813}, {"cell line": "NCI-H1437", "relative viability": 0.318}, {"cell line": "NCI-H1755", "relative viability": 0.452}, {"cell line": "NCI-H2023", "relative viability": 0.587}, {"cell line": "HCC-15", "relative viability": 0.557}]}, {"compound": "CC[C@@H]1C(=O)N(C)c2cnc(Nc3ccc(C(=O)NC4CCN(C)CC4)cc3OC)nc2N1C1CCCC1 [BI-2536] + Cc1nc(Nc2ncc(C(=O)Nc3c(C)cccc3Cl)s2)cc(N2CCN(CCO)CC2)n1 [Dasatinib] (partner 0.075 µM)", "assay": "relative viability (nuclei count vs DMSO), 5 days (fraction); higher = more cells survive", "conditions": "first compound 0.03162 µM", "summary_of_the_method": "as §1", "values": [{"cell line": "NCI-H2405", "relative viability": 0.214}, {"cell line": "HOP-62", "relative viability": 0.665}, {"cell line": "LU99A", "relative viability": 0.593}, {"cell line": "BEN", "relative viability": 0.367}, {"cell line": "HARA", "relative viability": 0.287}, {"cell line": "HCC-78", "relative viability": 0.374}, {"cell line": "NCI-H322M", "relative viability": 0.248}, {"cell line": "LCLC-97TM1", "relative viability": 0.837}, {"cell line": "NCI-H2009", "relative viability": 0.248}, {"cell line": "A-427", "relative viability": 0.752}, {"cell line": "NCI-H441", "relative viability": 0.244}, {"cell line": "NCI-H661", "relative viability": 0.307}, {"cell line": "NCI-H1734", "relative viability": 0.462}, {"cell line": "NCI-H460", "relative viability": 0.635}, {"cell line": "NCI-H2347", "relative viability": 0.293}, {"cell line": "SK-LU-1", "relative viability": 0.143}, {"cell line": "201T", "relative viability": 0.57}, {"cell line": "NCI-H1915", "relative viability": 0.354}, {"cell line": "HCC-827", "relative viability": 0.315}, {"cell line": "LXF-289", "relative viability": 0.235}, {"cell line": "NCI-H23", "relative viability": 1.02}, {"cell line": "NCI-H647", "relative viability": 0.184}, {"cell line": "CAL-12T", "relative viability": 0.287}, {"cell line": "NCI-H1651", "relative viability": 0.376}, {"cell line": "EPLC-272H", "relative viability": 0.357}, {"cell line": "NCI-H2228", "relative viability": 0.372}, {"cell line": "NCI-H1355", "relative viability": 0.78}, {"cell line": "NCI-H3122", "relative viability": 0.878}, {"cell line": "NCI-H1437", "relative viability": 0.365}, {"cell line": "NCI-H1755", "relative viability": 0.391}, {"cell line": "NCI-H2023", "relative viability": 0.463}, {"cell line": "HCC-15", "relative viability": 0.417}]}, {"compound": "CC[C@@H]1C(=O)N(C)c2cnc(Nc3ccc(C(=O)NC4CCN(C)CC4)cc3OC)nc2N1C1CCCC1 [BI-2536] + Cc1nc(Nc2ncc(C(=O)Nc3c(C)cccc3Cl)s2)cc(N2CCN(CCO)CC2)n1 [Dasatinib] (partner 0.075 µM)", "assay": "relative viability (nuclei count vs DMSO), 5 days (fraction); higher = more cells survive", "conditions": "first compound 0.1 µM", "summary_of_the_method": "as §1", "values": [{"cell line": "NCI-H2405", "relative viability": 0.178}, {"cell line": "HOP-62", "relative viability": 0.515}, {"cell line": "LU99A", "relative viability": 0.178}, {"cell line": "BEN", "relative viability": 0.248}, {"cell line": "HARA", "relative viability": 0.328}, {"cell line": "HCC-78", "relative viability": 0.416}, {"cell line": "NCI-H322M", "relative viability": 0.259}, {"cell line": "LCLC-97TM1", "relative viability": 0.725}, {"cell line": "NCI-H2009", "relative viability": 0.169}, {"cell line": "A-427", "relative viability": 0.44}, {"cell line": "NCI-H441", "relative viability": 0.195}, {"cell line": "NCI-H1734", "relative viability": 0.167}, {"cell line": "NCI-H460", "relative viability": 0.368}, {"cell line": "NCI-H2347", "relative viability": 0.285}, {"cell line": "SK-LU-1", "relative viability": 0.108}, {"cell line": "201T", "relative viability": 0.547}, {"cell line": "NCI-H1915", "relative viability": 0.139}, {"cell line": "HCC-827", "relative viability": 0.334}, {"cell line": "LXF-289", "relative viability": 0.0786}, {"cell line": "NCI-H23", "relative viability": 0.285}, {"cell line": "NCI-H647", "relative viability": 0.0428}, {"cell line": "CAL-12T", "relative viability": 0.0978}, {"cell line": "NCI-H1651", "relative viability": 0.075}, {"cell line": "EPLC-272H", "relative viability": 0.0724}, {"cell line": "NCI-H2228", "relative viability": 0.116}, {"cell line": "NCI-H1355", "relative viability": 0.359}, {"cell line": "NCI-H3122", "relative viability": 0.158}, {"cell line": "NCI-H1437", "relative viability": 0.247}, {"cell line": "NCI-H1755", "relative viability": 0.271}, {"cell line": "NCI-H2023", "relative viability": 0.346}, {"cell line": "HCC-15", "relative viability": 0.192}]}, {"compound": "CC[C@@H]1C(=O)N(C)c2cnc(Nc3ccc(C(=O)NC4CCN(C)CC4)cc3OC)nc2N1C1CCCC1 [BI-2536] + Cc1nc(Nc2ncc(C(=O)Nc3c(C)cccc3Cl)s2)cc(N2CCN(CCO)CC2)n1 [Dasatinib] (partner 0.075 µM)", "assay": "relative viability (nuclei count vs DMSO), 5 days (fraction); higher = more cells survive", "conditions": "first compound 0.3162 µM", "summary_of_the_method": "as §1", "values": [{"cell line": "NCI-H2405", "relative viability": 0.102}, {"cell line": "HOP-62", "relative viability": 0.173}, {"cell line": "LU99A", "relative viability": 0.188}, {"cell line": "BEN", "relative viability": 0.184}, {"cell line": "HARA", "relative viability": 0.058}, {"cell line": "HCC-78", "relative viability": 0.25}, {"cell line": "NCI-H322M", "relative viability": 0.361}, {"cell line": "LCLC-97TM1", "relative viability": 0.155}, {"cell line": "NCI-H2009", "relative viability": 0.137}, {"cell line": "A-427", "relative viability": 0.12}, {"cell line": "NCI-H441", "relative viability": 0.164}, {"cell line": "NCI-H1734", "relative viability": 0.145}, {"cell line": "NCI-H460", "relative viability": 0.0145}, {"cell line": "NCI-H2347", "relative viability": 0.278}, {"cell line": "SK-LU-1", "relative viability": 0.113}, {"cell line": "201T", "relative viability": 0.402}, {"cell line": "NCI-H1915", "relative viability": 0.156}, {"cell line": "HCC-827", "relative viability": 0.301}, {"cell line": "LXF-289", "relative viability": 0.047}, {"cell line": "NCI-H23", "relative viability": 0.126}, {"cell line": "NCI-H647", "relative viability": 0.0374}, {"cell line": "CAL-12T", "relative viability": 0.121}, {"cell line": "NCI-H1651", "relative viability": 0.1}, {"cell line": "EPLC-272H", "relative viability": 0.0766}, {"cell line": "NCI-H2228", "relative viability": 0.0877}, {"cell line": "NCI-H1355", "relative viability": 0.23}, {"cell line": "NCI-H3122", "relative viability": 0.0979}, {"cell line": "NCI-H1437", "relative viability": 0.173}, {"cell line": "NCI-H1755", "relative viability": 0.195}, {"cell line": "NCI-H2023", "relative viability": 0.0877}, {"cell line": "HCC-15", "relative viability": 0.112}]}, {"compound": "CC[C@@H]1C(=O)N(C)c2cnc(Nc3ccc(C(=O)NC4CCN(C)CC4)cc3OC)nc2N1C1CCCC1 [BI-2536] + Cc1nc(Nc2ncc(C(=O)Nc3c(C)cccc3Cl)s2)cc(N2CCN(CCO)CC2)n1 [Dasatinib] (partner 0.075 µM)", "assay": "relative viability (nuclei count vs DMSO), 5 days (fraction); higher = more cells survive", "conditions": "first compound 1 µM", "summary_of_the_method": "as §1", "values": [{"cell line": "NCI-H2405", "relative viability": 0.177}, {"cell line": "HOP-62", "relative viability": 0.167}, {"cell line": "LU99A", "relative viability": 0.159}, {"cell line": "BEN", "relative viability": 0.199}, {"cell line": "HARA", "relative viability": 0.0777}, {"cell line": "HCC-78", "relative viability": 0.17}, {"cell line": "NCI-H322M", "relative viability": 0.288}, {"cell line": "LCLC-97TM1", "relative viability": 0.12}, {"cell line": "NCI-H2009", "relative viability": 0.0971}, {"cell line": "A-427", "relative viability": 0.118}, {"cell line": "NCI-H441", "relative viability": 0.179}, {"cell line": "NCI-H661", "relative viability": 0.367}, {"cell line": "NCI-H1734", "relative viability": 0.131}, {"cell line": "NCI-H460", "relative viability": 0.0151}, {"cell line": "NCI-H2347", "relative viability": 0.167}, {"cell line": "SK-LU-1", "relative viability": 0.099}, {"cell line": "201T", "relative viability": 0.285}, {"cell line": "NCI-H1915", "relative viability": 0.0656}, {"cell line": "HCC-827", "relative viability": 0.177}, {"cell line": "LXF-289", "relative viability": 0.0368}, {"cell line": "NCI-H23", "relative viability": 0.107}, {"cell line": "NCI-H647", "relative viability": 0.039}, {"cell line": "CAL-12T", "relative viability": 0.0997}, {"cell line": "NCI-H1651", "relative viability": 0.0509}, {"cell line": "EPLC-272H", "relative viability": 0.0856}, {"cell line": "NCI-H2228", "relative viability": 0.0886}, {"cell line": "NCI-H1355", "relative viability": 0.199}, {"cell line": "NCI-H3122", "relative viability": 0.104}, {"cell line": "NCI-H1437", "relative viability": 0.108}, {"cell line": "NCI-H1755", "relative viability": 0.198}, {"cell line": "NCI-H2023", "relative viability": 0.0801}, {"cell line": "HCC-15", "relative viability": 0.102}]}]}
